Molecules are shown by their SMILES. Calls of active or inactive are those of the source. The rule behind the calls is not given here.

This experiment addresses 5-hydroxytryptamine receptor 5A (Homo sapiens) (UniProt P47898). Put plainly: HTR5A activation, luminescence read-out – cell-based, dose response, counter-screen for OPRM1-OPRD1 heterodimer activator project, late-stage follow-up (AID 651688). The settings on record: HTR5A counterscreen cells, luminescence (beta-arrestin/complementation). A general note: A counterscreen serves to expose hits that act by an unwanted route or on another target.

Chain of 5-hydroxytryptamine receptor 5A (Homo sapiens) (P47898 whole entry, looked up): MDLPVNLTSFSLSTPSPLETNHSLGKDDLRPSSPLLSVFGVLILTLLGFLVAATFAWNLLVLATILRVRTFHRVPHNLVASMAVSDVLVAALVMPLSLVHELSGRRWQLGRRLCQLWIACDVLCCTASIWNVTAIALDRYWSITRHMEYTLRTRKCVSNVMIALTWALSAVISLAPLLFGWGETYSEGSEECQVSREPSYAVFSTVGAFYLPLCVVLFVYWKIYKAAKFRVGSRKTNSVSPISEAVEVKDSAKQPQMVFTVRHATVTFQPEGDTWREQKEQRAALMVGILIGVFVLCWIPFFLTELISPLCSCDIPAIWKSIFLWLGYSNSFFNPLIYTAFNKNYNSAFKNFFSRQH

One may read the EC50 as the concentration at which the effect is half-maximal. For the compound `CCOC(=O)C1(CCc2ccccc2)CCN(Cc2ccc(NC(C)=O)cc2)CC1`, the EC50 is > 40 µM (inactive).
On to `CCOC(=O)C1(CCc2ccccc2)CCN(Cc2ccc(OC(C)C)c(C#N)c2)CC1`, for which the EC50 is > 40 µM (inactive).
As for `CCOC(=O)C1(CCCc2ccccc2)CCN(Cc2cnn(C)c2)CC1`, the EC50 was > 40 µM (inactive).
With `OCC1(CCc2ccccc2)CCN(Cc2cc(F)ccc2-n2cccn2)CC1`, the EC50 is > 40 µM (inactive).
Consider `CCOC(=O)C1(Cc2ccccc2)CCN(Cc2cccn2-c2nccs2)CC1`, for which the EC50 is > 40 µM (inactive).
For the compound `CCOC(=O)C1(CC2CCCCO2)CCN(Cc2c(C)cc(C)cc2-n2cccn2)CC1` (stereo unspecified), the EC50 was > 40 µM (inactive).
Consider `CCOC(=O)C1(CCOc2ccccc2)CCN(Cc2ccc(O)c(OC)c2)CC1`, for which the EC50 is > 40 µM (inactive).
`CCOC(=O)C1(Cc2ccccc2)CCN(Cc2cccn2-c2cccnc2)CC1`: the EC50 was > 40 µM (inactive).
For `CCOC(=O)C1(CCOc2ccccc2)CCN(Cc2cccn2-c2cccnc2)CC1`, the EC50 is > 40 µM (inactive).
`CCOC(=O)C1(CCc2ccccc2)CCN(Cc2cc(C)cc(C)c2)CC1`: the EC50 was > 40 µM (inactive).
Take `CCOC(=O)C1(CCc2ccccc2)CCN(Cc2ccccc2C)CC1`: the EC50 is > 40 µM (inactive).

These data come from PubChem BioAssay AID651688 (The Scripps Research Institute Molecular Screening Center, 2012).
